13 molecules from PubChem BioAssay AID1259407 (Chemical Carcinogenesis Research Information System (CCRIS), 2018) can be followed below.

The data set concerns CCRIS mutagenicity, Ames/micronucleus/aberration tests. The data set is described as follows: CCRIS mutagenicity studies.
Setting [1] is: Test System: AMES SALMONELLA TYPHIMURIUM, Strain/Indicator: TA98, Metabolic Activation: NONE, Method: STANDARD PLATE.
[2] abbreviates: Test System: AMES SALMONELLA TYPHIMURIUM, Strain/Indicator: TA100, Metabolic Activation: NONE, Method: STANDARD PLATE.
Setting [3] is: Test System: AMES SALMONELLA TYPHIMURIUM, Strain/Indicator: TA98, Metabolic Activation: RAT, LIVER, S-9, AROCLOR 1254, Method: STANDARD PLATE.
[4] abbreviates: Test System: AMES SALMONELLA TYPHIMURIUM, Strain/Indicator: TA100, Metabolic Activation: RAT, LIVER, S-9, AROCLOR 1254, Method: STANDARD PLATE.
[5] abbreviates: Test System: AMES SALMONELLA TYPHIMURIUM, Strain/Indicator: TA1535, Metabolic Activation: NONE, Method: STANDARD PLATE.
[6] abbreviates: Test System: AMES SALMONELLA TYPHIMURIUM, Strain/Indicator: TA1537, Metabolic Activation: NONE, Method: STANDARD PLATE.
Setting [7] is: Test System: AMES SALMONELLA TYPHIMURIUM, Strain/Indicator: TA1538, Metabolic Activation: NONE, Method: STANDARD PLATE.
Where [8] appears, read: Test System: AMES SALMONELLA TYPHIMURIUM, Strain/Indicator: TA100, Metabolic Activation: NONE, Method: PREINCUBATION
The mark [9] stands for this setting: Test System: AMES SALMONELLA TYPHIMURIUM, Strain/Indicator: TA1535, Metabolic Activation: NONE, Method: PREINCUBATION

Calls of active or inactive are those of the source. How the calls were made is not given here.

In the case of `CN(C)c1ccc(/C=C/c2ccc([N+](=O)[O-])cc2)cc1`, the mutagenic call was “active; positive” (Test System: AMES SALMONELLA TYPHIMURIUM, Strain/Indicator: TA98, Metabolic Activation: HAMSTER, LIVER, S-9, AROCLOR 1254 (10%), Method: STANDARD PLATE); “inactive; negative” under setting [1]; “active; positive” (Test System: AMES SALMONELLA TYPHIMURIUM, Strain/Indicator: TA98, Metabolic Activation: RAT, LIVER, S-9, AROCLOR 1254 (10%), Method: STANDARD PLATE); “active; positive” (Test System: AMES SALMONELLA TYPHIMURIUM, Strain/Indicator: TA100, Metabolic Activation: HAMSTER, LIVER, S-9, AROCLOR 1254 (10%), Method: STANDARD PLATE); “inactive; negative” under setting [2]; “active; positive” (Test System: AMES SALMONELLA TYPHIMURIUM, Strain/Indicator: TA100, Metabolic Activation: RAT, LIVER, S-9, AROCLOR 1254 (10%), Method: STANDARD PLATE). The mutagenic call runs as follows: (Test System: MOUSE LYMPHOMA, Strain/Indicator: L5178Y (TK+/TK-), Metabolic Activation: NONE, Method: SUSPENSION/PLATE) “inactive; negative”; (Test System: MOUSE LYMPHOMA, Strain/Indicator: L5178Y (TK+/TK-), Metabolic Activation: RAT, LIVER, S-9, AROCLOR 1254, Method: SUSPENSION/PLATE) “active; positive. reevaluation of results: positive”.

On to `[Cl][Sn][Cl]`, for which the mutagenic call (End Point: IN VITRO CHROMOSOMAL ABERRATIONS, Test System: CHO CELLS, Metabolic Activation: RAT, LIVER, S-9, AROCLOR 1254) was “active; positive; precipitation occurred at all doses”; the mutagenic call (End Point: In vivo chromosomal aberrations, Test System: Bone marrow cells (dams), liver cells (fetuses), Species: Mouse, Strain/Sex: Swiss/Female, Route: Oral) is “active; positive (structural and ploidy changes)”; the mutagenic call under setting [1] was “inactive; negative”; the mutagenic call under setting [3] was “inactive; negative”; the mutagenic call under setting [2] was “inactive; negative”; the mutagenic call under setting [4] is “inactive; negative”. The mutagenic call by setting is: under setting [5], “inactive; negative”; (Test System: AMES SALMONELLA TYPHIMURIUM, Strain/Indicator: TA1535, Metabolic Activation: RAT, LIVER, S-9, AROCLOR 1254, Method: STANDARD PLATE) “inactive; negative”; under setting [6], “inactive; negative”; (Test System: AMES SALMONELLA TYPHIMURIUM, Strain/Indicator: TA1537, Metabolic Activation: RAT, LIVER, S-9, AROCLOR 1254, Method: STANDARD PLATE) “inactive; negative”; under setting [7], “inactive; negative”; (Test System: AMES SALMONELLA TYPHIMURIUM, Strain/Indicator: TA1538, Metabolic Activation: RAT, LIVER, S-9, AROCLOR 1254, Method: STANDARD PLATE) “inactive; negative”. For the same molecule, the mutagenic call was “inactive; negative” (Test System: E. COLI, Strain/Indicator: WP2, Metabolic Activation: NONE, Method: STANDARD PLATE); “inactive; negative” (Test System: E. COLI, Strain/Indicator: WP2, Metabolic Activation: RAT, LIVER, S-9, AROCLOR 1254, Method: STANDARD PLATE); “inactive; negative” (Test System: E. COLI, Strain/Indicator: WP2 UVRA, Metabolic Activation: NONE, Method: SPOT TEST); “inactive; negative” (Test System: UDS RAT HEPATOCYTES, Strain/Indicator: THY INCORP, Metabolic Activation: NONE).

Take `N[C@@H](CSC(F)(F)C(F)(F)C(F)F)C(=O)O`: under “Test System: AMES SALMONELLA TYPHIMURIUM, Strain/Indicator: TA100, Metabolic Activation: RAT, KIDNEY, S-9, AROCLOR 1254, Method: STANDARD PLATE”, the mutagenic call is “inactive; negative”.

Regarding `O=[N+]([O-])c1ccccc1CBr`, the mutagenic call reads like this: (Test System: AMES SALMONELLA TYPHIMURIUM, Strain/Indicator: TA98, Metabolic Activation: NONE, Method: PREINCUBATION) “inactive; negative”; under setting [8], “inactive; negative”; (Test System: AMES SALMONELLA TYPHIMURIUM, Strain/Indicator: TA100, Metabolic Activation: RAT, LIVER, S-9, AROCLOR 1254, Method: PREINCUBATION) “inactive; negative”.

For the molecule `CC(=O)OCN(C)N=O`, the mutagenic call was “active; positive” (Test System: AMES SALMONELLA TYPHIMURIUM, Strain/Indicator: TA100, Metabolic Activation: HAMSTER, LIVER, CYTOSOL, Method: PREINCUBATION); “active; positive” (Test System: AMES SALMONELLA TYPHIMURIUM, Strain/Indicator: TA100, Metabolic Activation: HAMSTER, LIVER, CYTOSOL, Method: STANDARD PLATE); “active; positive” (Test System: AMES SALMONELLA TYPHIMURIUM, Strain/Indicator: TA104, Metabolic Activation: HAMSTER, LIVER, CYTOSOL, Method: PREINCUBATION); “active; positive” (Test System: AMES SALMONELLA TYPHIMURIUM, Strain/Indicator: TA104, Metabolic Activation: HAMSTER, LIVER, CYTOSOL, Method: STANDARD PLATE); “active; positive” under setting [9]; “active; positive” (Test System: UDS RAT UROTHELIAL CELLS, Strain/Indicator: THY INCORP, Metabolic Activation: NONE).

Consider `ClC[C@H]1CO1`, for which the mutagenic call under setting [8] is “active; positive”; the mutagenic call under setting [2] is “active; positive”; the mutagenic call (Test System: AMES SALMONELLA TYPHIMURIUM, Strain/Indicator: TA100, Metabolic Activation: RAT, LIVER, S-9, PCB, Method: PREINCUBATION) was “active; positive”.

With `CC(=O)OCc1c2ccccc2c(C)c2ccccc12`, the mutagenic call was “active; positive” under setting [1] and “active; positive” under setting [2].

Consider `Brc1ccc(C2CO2)cc1` (configuration not stated), for which, under “Test System: E. COLI, Strain/Indicator: WP2 UVRA, Metabolic Activation: NONE, Method: STANDARD PLATE”, the mutagenic call was “active; positive”.

Regarding `CCNc1nc(NC(C)C)[nH]c(=O)n1`, the mutagenic call is, setting by setting: (Test System: AMES SALMONELLA TYPHIMURIUM, Strain/Indicator: TA97, Metabolic Activation: NONE, Method: STANDARD PLATE) “inactive; negative”; under setting [1], “inactive; negative”; under setting [2], “inactive; negative”.

With `COc1ccc(C=CC(=O)c2ccccc2)cc1`, the mutagenic call is “inactive; negative” under setting [1], “inactive; negative” under setting [3], “inactive; negative” under setting [2] and “inactive; negative” under setting [4].

For `Cc1c(-c2ccccc2)oc2c(C(=O)OCCN3CCCCC3)cccc2c1=O`, the mutagenic call is “inactive; negative” under setting [1]; “inactive; negative” (Test System: AMES SALMONELLA TYPHIMURIUM, Strain/Indicator: TA98, Metabolic Activation: S-9, Method: STANDARD PLATE); “inactive; negative” under setting [2]; “inactive; negative” (Test System: AMES SALMONELLA TYPHIMURIUM, Strain/Indicator: TA100, Metabolic Activation: S-9, Method: STANDARD PLATE); “inactive; negative” under setting [5]; “inactive; negative” (Test System: AMES SALMONELLA TYPHIMURIUM, Strain/Indicator: TA1535, Metabolic Activation: S-9, Method: STANDARD PLATE). Further, the mutagenic call under setting [6] was “inactive; negative”; the mutagenic call (Test System: AMES SALMONELLA TYPHIMURIUM, Strain/Indicator: TA1537, Metabolic Activation: S-9, Method: STANDARD PLATE) was “inactive; negative”; the mutagenic call under setting [7] was “inactive; negative”; the mutagenic call (Test System: AMES SALMONELLA TYPHIMURIUM, Strain/Indicator: TA1538, Metabolic Activation: S-9, Method: STANDARD PLATE) was “inactive; negative”.

As for `COc1cc2c(cc1O)CC1c3c(cc(OC)c(O)c3-2)CC[N+]1(C)C` (configuration not stated), the mutagenic call (Test System: AMES SALMONELLA TYPHIMURIUM, Strain/Indicator: TA100, Metabolic Activation: RAT, LIVER, S-9, PHENOBARBITAL AND BETA-NAPHTHOFLAVONE, Method: PREINCUBATION) was “inactive; negative”.

Regarding `NC(=O)N(CCC(=O)O)N=O`, the mutagenic call is “active; positive” under setting [8]; “active; positive” under setting [9]; “active; positive” (Test System: E. COLI B, Strain/Indicator: H/R30R, Metabolic Activation: NONE); “active; positive” (Test System: E. COLI B, Strain/Indicator: HS30R, Metabolic Activation: NONE).
